Data as given in patent publication US12617785B2, “Pyrrolo[2,3-b]pyridine-3-carboxamide compositions and methods for ameliorating hearing loss” (priority 2020, dated 2026).
pIC50: −log10 of the molar value. Counter-ions that a name gives are not always drawn.

molecular target: T1, Lats1 (Homo sapiens, UniProt O95835); test: In vitro kinase assay (HTRF KinEASE-STK S1) Lats1, 2 mM ATP; type: biochemical; conditions: not given
T1 construct: purchased Carna 01-123
T1 sequence (O95835 1-1130): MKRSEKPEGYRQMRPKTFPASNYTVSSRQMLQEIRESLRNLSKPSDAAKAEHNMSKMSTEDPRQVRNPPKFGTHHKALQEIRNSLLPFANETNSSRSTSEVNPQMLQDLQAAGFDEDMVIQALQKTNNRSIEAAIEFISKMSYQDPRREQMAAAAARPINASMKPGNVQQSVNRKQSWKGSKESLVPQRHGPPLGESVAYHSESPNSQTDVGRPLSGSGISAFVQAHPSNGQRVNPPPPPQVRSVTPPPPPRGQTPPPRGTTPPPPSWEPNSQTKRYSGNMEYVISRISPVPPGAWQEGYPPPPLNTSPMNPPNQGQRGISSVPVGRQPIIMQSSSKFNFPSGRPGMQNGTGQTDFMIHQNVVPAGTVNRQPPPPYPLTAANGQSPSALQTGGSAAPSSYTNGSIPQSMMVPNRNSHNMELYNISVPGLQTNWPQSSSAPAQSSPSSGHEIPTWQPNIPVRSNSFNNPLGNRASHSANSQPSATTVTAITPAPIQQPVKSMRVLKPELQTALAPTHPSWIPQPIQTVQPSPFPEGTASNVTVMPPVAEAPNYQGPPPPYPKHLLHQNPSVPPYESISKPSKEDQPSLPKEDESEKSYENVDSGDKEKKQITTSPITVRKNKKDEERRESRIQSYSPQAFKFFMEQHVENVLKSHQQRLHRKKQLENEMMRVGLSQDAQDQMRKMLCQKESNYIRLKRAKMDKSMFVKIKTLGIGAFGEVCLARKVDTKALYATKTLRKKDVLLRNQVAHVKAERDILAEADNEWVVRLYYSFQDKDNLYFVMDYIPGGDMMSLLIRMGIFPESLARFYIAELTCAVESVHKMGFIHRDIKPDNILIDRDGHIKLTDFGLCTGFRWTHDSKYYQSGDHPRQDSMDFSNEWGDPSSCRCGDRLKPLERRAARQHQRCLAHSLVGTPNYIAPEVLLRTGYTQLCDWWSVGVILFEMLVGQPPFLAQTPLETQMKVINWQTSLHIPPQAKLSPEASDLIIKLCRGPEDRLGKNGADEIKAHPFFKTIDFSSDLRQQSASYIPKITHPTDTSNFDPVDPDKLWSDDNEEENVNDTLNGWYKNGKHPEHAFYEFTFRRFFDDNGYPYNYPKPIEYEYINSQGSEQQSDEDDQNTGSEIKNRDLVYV
Protocol: (§1) Reactions were conducted with 10 μM STK1 substrate and 10 μM ATP or 2 mM ATP as shown below. […] The enzyme, substrate, ATP, and test compound of the invention were combined in a low-volume 384-well plate and shaken for 50 min at room temperature, unless otherwise indicated. The reaction was stopped by adding the detection reagents, which were prepared at an 8:1 biotin:streptavidin ratio and shaking for 60 min at room temperature. All reactions were conducted in triplicate and a Synergy NEO (Biotek) was used to detect the signal.
Assay was carried out in a 384 well plate. Each drug dosage curve was done with 16 points of 3-fold dilutions in 100% DMSO, and triplicate.

| Compound | pIC50 |
| --- | --- |
| CC(C)c1cs/c(=N\C(=O)c2c[nH]c3ncccc23)n1Cc1ccccc1 [T69] | 6.77 |
| O=C(/N=c1\sccn1Cc1cccnc1)c1c[nH]c2ncccc12 [T53, (Z)—N-(3-(pyridin-3-ylmethyl)thiazol-2(3H)-ylidene)-1H-pyrrolo[2,3-b]pyridine-3-carboxamide] | 5.96 |
| O=C(/N=c1\sccn1-c1ccc(CO)cc1)c1c[nH]c2ncccc12 [T36] | 7.22 |
| O=C(/N=c1\sccn1-c1ccccn1)c1c[nH]c2ncccc12 [T30] | 6.55 |
| O=C(O)CCn1ccs/c1=N\C(=O)c1c[nH]c2ncccc12 [T51, (Z)-3-(2-((1H-pyrrolo[2,3-b]pyridine-3-carbonyl)imino)thiazol-3(2H)-yl)propanoic acid] | 6.22 |
| NCc1cccc(-n2ccs/c2=N\C(=O)c2c[nH]c3ncccc23)c1 [T61, (Z)—N-(3-(3-(aminomethyl)phenyl)thiazol-2(3H)-ylidene)-1H-pyrrolo[2,3-b]pyridine-3-carboxamide] | 7.73 |
| O=C(/N=c1\sccn1C1CCNCC1)c1c[nH]c2ncccc12 [T75, (Z)—N-(3-(piperidin-4-yl)thiazol-2(3H)-ylidene)-1H-pyrrolo[2,3-b]pyridine-3-carboxamide hydrochloride] | 7.03 |
| O=C(/N=c1\sccn1C1CCOCC1)c1c[nH]c2ncccc12 [T76] | 5.66 |
| CN(C)CCNC(=O)c1cs/c(=N\C(=O)c2c[nH]c3ncccc23)n1Cc1ccccc1 [T80, (Z)-3-Benzyl-N-[2-(dimethylamino)ethyl]-2-(1H-pyrrolo[2,3-b]pyridine-3-carbonylimino)thiazole-4-carboxamide] | 7.09 |
| O=C(/N=c1\sccn1-c1cccnc1)c1c[nH]c2ncccc12 [T31] | 5.42 |
| NC(=O)c1cccc(-n2ccs/c2=N\C(=O)c2c[nH]c3ncccc23)c1 [T60] | 6.38 |
| NCc1ccccc1-n1ccs/c1=N\C(=O)c1c[nH]c2ncccc12 [T32] | 7.37 |
| O=C(/N=c1\sccn1Cc1ccccn1)c1c[nH]c2ncccc12 [T54] | 4.96 |
| O=C(/N=c1\sccn1-c1ccc(Cl)cc1)c1c[nH]c2ncccc12 [T27] | 7.35 |
| COc1ccc(-n2ccs/c2=N\C(=O)c2c[nH]c3ncccc23)cc1 [T24] | 6.95 |
| O=C(/N=c1\sccn1-c1ccccc1Br)c1c[nH]c2ncccc12 [T29] | 7.69 |
| O=C(/N=c1\sccn1C1CCCCC1)c1c[nH]c2ncccc12 [T57, (Z)—N-(3-cyclohexylthiazol-2(3H)-ylidene)-1H-pyrrolo[2,3-b]pyridine-3-carboxamide] | 9.30 |
| CN(C)C(=O)c1cs/c(=N\C(=O)c2c[nH]c3ncccc23)n1-c1ccccc1Cl [T82] | 7.70 |
| O=C(/N=c1\scc(CO)n1Cc1ccccc1)c1c[nH]c2ncccc12 [T72, (Z)—N-(3-benzyl-4-(hydroxymethyl)thiazol-2(3H)-ylidene)-1H-pyrrolo[2,3-b]pyridine-3-carboxamide] | 9.70 |
| O=C(/N=c1\scc(C(F)(F)F)n1Cc1ccccc1)c1c[nH]c2ncccc12 [T71] | 6.75 |
| Cc1cs/c(=N\C(=O)c2c[nH]c3ncccc23)n1C1CCCCC1 [T74] | 9.70 |
| O=C(/N=c1\sccn1Cc1ccncc1)c1c[nH]c2ncccc12 [T52, (Z)—N-(3-(pyridin-4-ylmethyl)thiazol-2(3H)-ylidene)-1H-pyrrolo[2,3-b]pyridine-3-carboxamide] | 5.31 |
| Nc1cc(-n2ccs/c2=N\C(=O)c2c[nH]c3ncccc23)ccn1 [T35] | 6.48 |
| CCOC(=O)c1cs/c(=N\C(=O)c2c[nH]c3ncccc23)n1Cc1ccccc1 [T79, Ethyl (2Z)-3-benzyl-2-(1H-pyrrolo[2,3-b]pyridine-3-carbonylimino)thiazole-4-carboxylate] | 7.66 |
| Cc1ccccc1-n1ccs/c1=N\C(=O)c1c[nH]c2ncccc12 [T19] | 9.52 |

same assay, conditions: 2 mM ATP; read-out: LATS1_HTRF_2 mM ATP IC50

| Compound | pIC50 |
| --- | --- |
| CCc1cs/c(=N\C(=O)c2c[nH]c3ncccc23)n1Cc1ccccc1 [T68] | 7.23 |
| CNC(=O)c1cs/c(=N\C(=O)c2c[nH]c3ncccc23)n1-c1ccccc1Cl [T81] | 8.44 |
| O=C(/N=c1\occ(CO)n1Cc1ccccc1)c1c[nH]c2ncccc12 [T78, (Z)—N-(3-benzyl-4-(hydroxymethyl)oxazol-2(3H)-ylidene)-1H-pyrrolo[2,3-b]pyridine-3-carboxamide] | 8.80 |
| Cc1co/c(=N\C(=O)c2c[nH]c3ncccc23)n1Cc1ccccc1 [T77, (Z)—N-(3-benzyl-4-methyloxazol-2(3H)-ylidene)-1H-pyrrolo[2,3-b]pyridine-3-carboxamide] | 6.97 |
| O=C(/N=c1\sccn1CC1CCOCC1)c1c[nH]c2ncccc12 [T56] | 5.99 |
| Cn1cc(Cn2ccs/c2=N\C(=O)c2c[nH]c3ncccc23)cn1 [T59] | 5.22 |
| Cc1cccc(-n2ccs/c2=N\C(=O)c2c[nH]c3ncccc23)c1 [T20] | 6.81 |
| Cc1ccc(-n2ccs/c2=N\C(=O)c2c[nH]c3ncccc23)cc1 [T21] | 8.12 |
| COc1cccc(-n2ccs/c2=N\C(=O)c2c[nH]c3ncccc23)c1 [T23] | 6.24 |
| Cc1cs/c(=N\C(=O)c2c[nH]c3ncccc23)n1CC1CCCCC1 [T73] | 9.10 |
| Cc1ccnc2[nH]cc(C(=O)/N=c3\sccn3Cc3ccccc3)c12 [T05] | 5.49 |
| N#Cc1ccccc1-n1ccs/c1=N\C(=O)c1c[nH]c2ncccc12 [T28] | 6.71 |
| O=C(/N=c1\sccn1-c1ccc2c(c1)CNCC2)c1c[nH]c2ncccc12 [T62, (Z)—N-(3-(1,2,3,4-tetrahydroisoquinolin-7-yl)thiazol-2(3H)-ylidene)-1H-pyrrolo[2,3-b]pyridine-3-carboxamide] | 6.90 |
| Cn1c(Cc2ccccc2)cs/c1=N\C(=O)c1c[nH]c2ncccc12 [T64] | 5.10 |
| O=C(/N=c1\sccn1-c1cccc(Cl)c1)c1c[nH]c2ncccc12 [T66] | 6.72 |
| COc1ccccc1-n1ccs/c1=N\C(=O)c1c[nH]c2ncccc12 [T22] | 6.14 |
| O=C(/N=c1\sccn1-c1ccccc1Cl)c1c[nH]c2ncccc12 [T65] | 10.00 |

molecular target: T1, Lats1; test: In vitro kinase assay (HTRF KinEASE-STK S1) Lats1, 10 uM ATP; type: biochemical; conditions: not given
Protocol: IVKA assay at 10 uM method:
as §1

| Compound | pIC50 |
| --- | --- |
| O=Cc1ccc(Cn2ccs/c2=N\C(=O)c2c[nH]c3ncccc23)cc1 [T48, (Z)—N-(3-(4-formylbenzyl)thiazol-2(3H)-ylidene)-1H-pyrrolo[2,3-b]pyridine-3-carboxamide] | 6.10 |

same assay, conditions: 10 uM ATP; read-out: LATS1_HTRF_10 uM ATP IC50

| Compound | pIC50 |
| --- | --- |
| Cc1cnc2[nH]cc(C(=O)/N=c3\sccn3Cc3ccccc3)c2c1 [T03] | 6.83 |
| O=C(O)c1cccc(Cn2ccs/c2=N\C(=O)c2c[nH]c3ncccc23)c1 [T34] | 5.20 |
| Cc1ccc2c(C(=O)/N=c3\sccn3Cc3ccccc3)c[nH]c2n1 [T02] | 5.23 |
| Cn1ccs/c1=N\C(=O)c1c[nH]c2ncccc12 [T37, (Z)—N-(3-methylthiazol-2(3H)-ylidene)-1H-pyrrolo[2,3-b]pyridine-3-carboxamide] | 6.63 |
| CCn1ccs/c1=N\C(=O)c1c[nH]c2ncccc12 [T38, (Z)—N-(3-ethylthiazol-2(3H)-ylidene)-1H-pyrrolo[2,3-b]pyridine-3-carboxamide] | 7.57 |
| Cn1nccc1Cn1ccs/c1=N\C(=O)c1c[nH]c2ncccc12 [T58] | 6.89 |
| Cc1cn(Cc2ccccc2)/c(=N/C(=O)c2c[nH]c3ncccc23)s1 [T26] | 7.13 |
| N#Cc1ccccc1Cn1ccs/c1=N\C(=O)c1c[nH]c2ncccc12 [T42, (Z)—N-(3-(2-cyanobenzyl)thiazol-2(3H)-ylidene)-1H-pyrrolo[2,3-b]pyridine-3-carboxamide] | 7.89 |
| Cc1[nH]c2ncccc2c1C(=O)/N=c1\sccn1Cc1ccccc1 [T04] | 6.80 |
| COC(=O)c1cccc(Cn2ccs/c2=N\C(=O)c2c[nH]c3ncccc23)c1 [T33] | 6.65 |
| N#Cc1cccc(Cn2ccs/c2=N\C(=O)c2c[nH]c3ncccc23)c1 [T44, (Z)—N-(3-(3-cyanobenzyl)thiazol-2(3H)-ylidene)-1H-pyrrolo[2,3-b]pyridine-3-carboxamide] | 6.59 |
